Patent publication US5622725A, “Wound disinfection and repair” (Alcide Corporation, priority 1996, dated 1997)

Assays:
S. epidermidis biofilms = assay: Sterilization of S. epidermidis biofilms by diluted 50 ppm ClO2 or formol saline; assay type: cell-based, Staphylococcus epidermidis; settings: for minimal time of exposure to effect sterilization: 22° C.
Experimental: Antibiotic activity against S. epidermidis biofilms are determined using a supravital dye which acts as an electron acceptor in coupled oxidative systems in biofilm bacteria. The method allows the bacteria to be examined undisturbed within the biofilm matrix in situ. Briefly stated, the biofilms are exposed to antibiotic solutions and incubated at […] for varying periods of time. Positive (viable, 1% peptone water) and negative (sterilized, 4% formol-peptone) controls are included in all experiments. After a designated exposure at 22° C. for varying periods of time between 15 seconds to 6 hours, the biofilms are rinsed twice in sterile water and allowed to drain. They are then placed in a flat agar medium incorporating substantive dyes and incubated at 37° C. for 4 hours, then 24 hours. Viability is assessed visually by a change in dye color and confirmed after 24 hours by mechanically scraping and subsequently culturing the biofilms. Sterilization is indicated by the absence of color changes and confirmed by culture of both intact and mechanically fragmented biofilms. Inhibition of growth is indicated by a lack of color change after a 4-hour incubation and confirmed by a positive color change by 24 hours.
This conclusion is underscored in studies that assess the efficacy of methods employed using compositions of the invention in combination with an infusate used in C A P D and C C P D practice, Inpersol® Abbott Laboratories, Montreal, Canada, which contains 4.25% dextrose and has a pH of 5.2. A 50 ppm ClO2 solution is diluted from 1:2 to 1:10 with normal saline (denoted below as NS), Inpersol® peritoneal dialyzate (denoted as PD), and peptone-saline (a standardized protein digest obtained from Oxoid, denoted as PS). Four percent formol saline, a known potent environmental disinfectant of considerable toxicity, is used as a reference. The results are expressed as the minimal time of exposure at 22° C. to effect sterilization of S. epidermidis biofilms: […]

[1] = Free radical signal by electron spin resonance (ESR); settings: One hundred-fold dilutions, within one minute after mixing
Experimental: (§1) ClO2 (75 ppm) is generated by mixing 0.25% chlorite and 1.4% lactic acid. One hundred-fold dilutions are tested within one minute after mixing using electron paramagnetic spectroscopy (ESR) and a LKB luminometer.
For the ESR assay, the chlorine dioxide solution is frozen in liquid nitrogen to -167° C. and electron spin resonance analyzed using a Varian E3 instrument.

[2] = tested on: polymorphonuclear leukocytes; assay: Chemotaxis, cell integrity (lactate dehydrogenase) and morphology of isolated polymorphonuclear leukocytes; assay type: cell-based; settings: in vitro, ClO2 solution 3 to 300 ppm
Source text: To test whether methods of the invention can control the inflammatory response, isolated polymorphonuclear leukocytes, which are among the first cells to be found at a wound or a site of potential infection, are studied with respect to their response to chlorine dioxide solutions and compared with a control containing ibuprofen, a known non-steroid anti-inflammatorycompound. The choice of in vitro assay is chemotaxis.
Isolated polymorphonuclear leukocytes are studied with respect to their response to a ClO2 solution varying in concentration from 3 to 300 ppm and an ibuprofen control. Cellular response and integrity (chemotaxis)is assayed in vitro after incubating with both compounds by measuring lactate dehydrogenase activity and/or release concurrently with observing morphology using scanning electron microscopy and/or transmission electron microscopy.
The results are graphically illustrated in FIGS. 1 to 3. The x-axis in the figures show dilutions of a 0.5 mg/ml ibuprofen solution, and chlorine dioxide solutions prepared by combining lactic acid with sodium chlorite and diluting to yield chlorine dioxide concentrations as follows: […], 1:10 is 60 ppm ClO2, 1:20 is 30 ppm ClO2, 1:50 is 12 ppm ClO2, 1:100 is 6 ppm ClO2, 1:150 is 4 ppm ClO2, and 1:200 is 3 ppm ClO2.
A negative control is denoted by .smallcircle.. […]

[3] = Free radical signal by luminometer (modified luminol assay); settings: One hundred-fold dilutions, within one minute after mixing
Experimental: as §1
The luminometer assay utilizes a modified luminol assay for radical detection. Luminol (LH2) reacts with free radicals (R·) as follows: […]
LOO^- →L2 + AP* (aminophthalate dianion, active state)
The pH optimum for the reaction is 10 to 12. The assay is standardized with an enzymatic system in which the generation of free radicals could be quantified by measuring generation of ·O2^-, obtained with the following reaction, […]
hypoxanthine+xanthine oxidase→urate+·O2^- by the reduction of ferricytochrome C.

Compound: [O][Cl+][O-] [ClO2, chlorine dioxide]
- minimal time of exposure to effect sterilization (S. epidermidis biofilms; dilution 1/2 in normal saline (NS)): 0.25 min
- minimal time of exposure to effect sterilization (S. epidermidis biofilms; dilution 1/2 in peptone-saline (PS)): 1 min
- minimal time of exposure to effect sterilization (S. epidermidis biofilms; dilution 1/2 in peritoneal dialyzate (PD)): 0.083 min
- minimal time of exposure to effect sterilization (S. epidermidis biofilms; dilution 1/3 in normal saline (NS)): 0.5 min
- minimal time of exposure to effect sterilization (S. epidermidis biofilms; dilution 1/3 in peptone-saline (PS)): 3 min
- minimal time of exposure to effect sterilization (S. epidermidis biofilms; dilution 1/3 in peritoneal dialyzate (PD)): 1 min
- minimal time of exposure to effect sterilization (S. epidermidis biofilms; dilution 1/5 in normal saline (NS)): 5 min
- minimal time of exposure to effect sterilization (S. epidermidis biofilms; dilution 1/5 in peptone-saline (PS)): 60 min
- minimal time of exposure to effect sterilization (S. epidermidis biofilms; dilution 1/5 in peritoneal dialyzate (PD)): 5 min
- minimal time of exposure to effect sterilization (S. epidermidis biofilms; dilution 1/7 in normal saline (NS)): 15 min
- minimal time of exposure to effect sterilization (S. epidermidis biofilms; dilution 1/7 in peptone-saline (PS)): 240 min
- minimal time of exposure to effect sterilization (S. epidermidis biofilms; dilution 1/7 in peritoneal dialyzate (PD)): 7 min
- minimal time of exposure to effect sterilization (S. epidermidis biofilms; dilution 1/10 in normal saline (NS)): 60 min
- minimal time of exposure to effect sterilization (S. epidermidis biofilms; dilution 1/10 in peptone-saline (PS)): 1440 min
- minimal time of exposure to effect sterilization (S. epidermidis biofilms; dilution 1/10 in peritoneal dialyzate (PD)): 10 min
- effect of diluting with peptone solutions on sterilizing activity (S. epidermidis biofilms; diluted with peptone solutions): inhibitory effect on the sterilizing activity
- effect of peritoneal dialysis solution on antimicrobial activity (S. epidermidis biofilms; diluted with peritoneal dialysis solution): markedly enhances antimicrobial activity
- free radical signal [1]: A strong free radical signal is generated
- effect on chemotaxis / quality and morphology of polymorphonuclear leukocytes [2]: control chemotaxis by affecting the quality and morphology of the associated polymorphonuclear leukocytes
- effect on chemotaxis / quality and morphology of polymorphonuclear leukocytes ([2]; listed as ClO2 solution): affected both the quality and morphology of polymorphonuclear leukocytes
- free radical signal [3]: A strong free radical signal is generated
